Data: ChEMBL document CHEMBL3885861, “Open TG-GATES”

Species: Rattus norvegicus
Assay: Open TG-GATES - Regimen: Daily Repeat
Assay type: toxicity, organism-based, Sprague-Dawley
Set-up: regimen Daily Repeat, gender Male, age 6 weeks
Details: in vivo, po, 40 mg/kg, route gavage, dose level Low; for APTT / Bas / Eos / Fbg / Hb / Ht / Lym / MCH / MCHC / MCV / Mono / Neu / PT / Plat / RBC / Ret / WBC: tissue Blood; for KIDNEY_L / KIDNEY_R / KIDNEY_TOTAL: tissue Kidney; for LIVER: tissue Liver; for A/G / ALP / ALT / AST / BUN / CRE / Ca / Cl / DBIL / GLC / IP / K / LDH / Na / PL / RALB / TBIL / TC / TG / TP / gamma-GTP: tissue Plasma

For `COc1ccc(Cc2nccc3cc(OC)c(OC)cc23)cc1OC` [PAPAVERINE], the TERMINAL_BW (72 h, time 3 day) was 246.9 g, the APTT (72 h, time 3 day) was 21.6 s and the Bas (72 h, time 3 day) was 0%. The Eos (72 h, time 3 day) was 0.6%, the Fbg (72 h, time 3 day) was 325.8 mg/dL and the Hb (72 h, time 3 day) was 13.1 g/dL. For the same compound, the Ht (72 h, time 3 day) was 39.6%, the Lym (72 h, time 3 day) was 77.6% and the MCH (72 h, time 3 day) was 21.1 pg. For the same compound, the MCHC (72 h, time 3 day) was 33.2%, the MCV (72 h, time 3 day) was 63.6 fL and the Mono (72 h, time 3 day) was 2.8%. It also gave a Neu (72 h, time 3 day) of 18%, a PT (72 h, time 3 day) of 15.5 s and a Plat (72 h, time 3 day) of 124.7 x10_4/uL. For the same compound, the RBC (72 h, time 3 day) was 624.6 x10_4/ul, the Ret (72 h, time 3 day) was 6.8% and the WBC (72 h, time 3 day) was 102.4 x10_2/uL. The KIDNEY_L (72 h, time 3 day) was 1 g, the KIDNEY_R (72 h, time 3 day) was 1.1 g and the KIDNEY_TOTAL (72 h, time 3 day) was 2.1 g. It also gave an LIVER (72 h, time 3 day) of 11.6 g, an A/G (72 h, time 3 day) of 1.2 and an ALP (72 h, time 3 day) of 1776.4 IU/L. The ALT (72 h, time 3 day) was 44.2 IU/L, the AST (72 h, time 3 day) was 73 IU/L and the BUN (72 h, time 3 day) was 17 mg/dL. For the same compound, the CRE (72 h, time 3 day) was 0.1 mg/dL, the Ca (72 h, time 3 day) was 10.9 mg/dL and the Cl (72 h, time 3 day) was 107.6 meq/L. The DBIL (72 h, time 3 day) was 0 mg/dL, the GLC (72 h, time 3 day) was 185.4 mg/dL and the IP (72 h, time 3 day) was 7.5 mg/dL. For the same compound, the K (72 h, time 3 day) was 4.5 meq/L, the LDH (72 h, time 3 day) was 184 IU/L and the Na (72 h, time 3 day) was 142.2 meq/L. The PL (72 h, time 3 day) was 153.4 mg/dL, the RALB (72 h, time 3 day) was 3 g/dL and the TBIL (72 h, time 3 day) was 0.008 mg/dL. It also gave a TC (72 h, time 3 day) of 77.8 mg/dL, a TG (72 h, time 3 day) of 126 mg/dL and a TP (72 h, time 3 day) of 5.6 g/dL. It also gave a gamma-GTP (72 h, time 3 day) of 1.4 IU/L, a TERMINAL_BW ([…], time 7 day) of 281.8 g and a TERMINAL_BW ([…], time 14 day) of 316.9 g. The TERMINAL_BW ([…], time 28 day) was 422.2 g, the APTT ([…], time 7 day) was 21.6 s and the Bas ([…], time 7 day) was 0%. The Eos ([…], time 7 day) was 1%, the Fbg ([…], time 7 day) was 317.8 mg/dL and the Hb ([…], time 7 day) was 13.1 g/dL. It also gave a Ht ([…], time 7 day) of 38.8%, a Lym ([…], time 7 day) of 80.2% and an MCH ([…], time 7 day) of 20.8 pg. It also gave an MCHC ([…], time 7 day) of 33.7%, an MCV ([…], time 7 day) of 61.8 fL and a Mono ([…], time 7 day) of 2.2%. For the same compound, the Neu ([…], time 7 day) was 15.8%, the PT ([…], time 7 day) was 15.4 s and the Plat ([…], time 7 day) was 123 x10_4/uL. For the same compound, the RBC ([…], time 7 day) was 628 x10_4/ul, the Ret ([…], time 7 day) was 6.3% and the WBC ([…], time 7 day) was 124.1 x10_2/uL. For the same compound, the APTT ([…], time 14 day) was 23 s, the Bas ([…], time 14 day) was 0% and the Eos ([…], time 14 day) was 0.6%. For the same compound, the Fbg ([…], time 14 day) was 342.6 mg/dL, the Hb ([…], time 14 day) was 14.2 g/dL and the Ht ([…], time 14 day) was 41.8%. For the same compound, the Lym ([…], time 14 day) was 79%, the MCH ([…], time 14 day) was 19.7 pg and the MCHC ([…], time 14 day) was 34%. It also gave an MCV ([…], time 14 day) of 57.9 fL, a Mono ([…], time 14 day) of 2% and a Neu ([…], time 14 day) of 16.6%. For the same compound, the PT ([…], time 14 day) was 15.6 s, the Plat ([…], time 14 day) was 111.2 x10_4/uL and the RBC ([…], time 14 day) was 722.6 x10_4/ul. For the same compound, the Ret ([…], time 14 day) was 4.6%, the WBC ([…], time 14 day) was 128.3 x10_2/uL and the APTT ([…], time 28 day) was 25.2 s. The Bas ([…], time 28 day) was 0%, the Eos ([…], time 28 day) was 1% and the Fbg ([…], time 28 day) was 319 mg/dL. For the same compound, the Hb ([…], time 28 day) was 14.5 g/dL, the Ht ([…], time 28 day) was 43.8% and the Lym ([…], time 28 day) was 80%. It also gave an MCH ([…], time 28 day) of 19.1 pg, an MCHC ([…], time 28 day) of 33.1% and an MCV ([…], time 28 day) of 57.7 fL. It also gave a Mono ([…], time 28 day) of 1.8%, a Neu ([…], time 28 day) of 15.8% and a PT ([…], time 28 day) of 15.8 s. It also gave a Plat ([…], time 28 day) of 105.3 x10_4/uL, an RBC ([…], time 28 day) of 760.4 x10_4/ul and a Ret ([…], time 28 day) of 3.1%. The WBC ([…], time 28 day) was 151.9 x10_2/uL, the KIDNEY_L ([…], time 7 day) was 1.2 g and the KIDNEY_R ([…], time 7 day) was 1.2 g. It also gave a KIDNEY_TOTAL ([…], time 7 day) of 2.4 g, a KIDNEY_L ([…], time 14 day) of 1.2 g and a KIDNEY_R ([…], time 14 day) of 1.2 g. For the same compound, the KIDNEY_TOTAL ([…], time 14 day) was 2.5 g, the KIDNEY_L ([…], time 28 day) was 1.4 g and the KIDNEY_R ([…], time 28 day) was 1.5 g. It also gave a KIDNEY_TOTAL ([…], time 28 day) of 2.9 g, an LIVER ([…], time 7 day) of 13.2 g and an LIVER ([…], time 14 day) of 14.1 g. For the same compound, the LIVER ([…], time 28 day) was 17.3 g, the A/G ([…], time 7 day) was 1.2 and the ALP ([…], time 7 day) was 1841.6 IU/L. It also gave an ALT ([…], time 7 day) of 40.6 IU/L, an AST ([…], time 7 day) of 67.2 IU/L and a BUN ([…], time 7 day) of 19.8 mg/dL. For the same compound, the CRE ([…], time 7 day) was 0.1 mg/dL, the Ca ([…], time 7 day) was 10.8 mg/dL and the Cl ([…], time 7 day) was 106 meq/L. It also gave a DBIL ([…], time 7 day) of 0 mg/dL, a GLC ([…], time 7 day) of 189.6 mg/dL and an IP ([…], time 7 day) of 6.8 mg/dL. The K ([…], time 7 day) was 4.5 meq/L, the LDH ([…], time 7 day) was 157 IU/L and the Na ([…], time 7 day) was 140.8 meq/L. It also gave a PL ([…], time 7 day) of 155.6 mg/dL, an RALB ([…], time 7 day) of 3 g/dL and a TBIL ([…], time 7 day) of 0.002 mg/dL. For the same compound, the TC ([…], time 7 day) was 76.4 mg/dL, the TG ([…], time 7 day) was 132.6 mg/dL and the TP ([…], time 7 day) was 5.5 g/dL. It also gave a gamma-GTP ([…], time 7 day) of 2.6 IU/L, an A/G ([…], time 14 day) of 1.1 and an ALP ([…], time 14 day) of 1354 IU/L. The ALT ([…], time 14 day) was 40.6 IU/L, the AST ([…], time 14 day) was 67.4 IU/L and the BUN ([…], time 14 day) was 20.2 mg/dL. The CRE ([…], time 14 day) was 0.2 mg/dL, the Ca ([…], time 14 day) was 10.2 mg/dL and the Cl ([…], time 14 day) was 106.4 meq/L. For the same compound, the DBIL ([…], time 14 day) was 0 mg/dL, the GLC ([…], time 14 day) was 193.4 mg/dL and the IP ([…], time 14 day) was 6.9 mg/dL. For the same compound, the K ([…], time 14 day) was 4.2 meq/L, the LDH ([…], time 14 day) was 151.6 IU/L and the Na ([…], time 14 day) was 143 meq/L. For the same compound, the PL ([…], time 14 day) was 139.2 mg/dL, the RALB ([…], time 14 day) was 2.9 g/dL and the TBIL ([…], time 14 day) was 0.014 mg/dL. For the same compound, the TC ([…], time 14 day) was 64.2 mg/dL, the TG ([…], time 14 day) was 168 mg/dL and the TP ([…], time 14 day) was 5.7 g/dL. The gamma-GTP ([…], time 14 day) was 2 IU/L, the A/G ([…], time 28 day) was 1.1 and the ALP ([…], time 28 day) was 1003.2 IU/L. The ALT ([…], time 28 day) was 36.4 IU/L, the AST ([…], time 28 day) was 62.2 IU/L and the BUN ([…], time 28 day) was 20 mg/dL. For the same compound, the CRE ([…], time 28 day) was 0.2 mg/dL, the Ca ([…], time 28 day) was 10.2 mg/dL and the Cl ([…], time 28 day) was 106 meq/L. The DBIL ([…], time 28 day) was 0 mg/dL, the GLC ([…], time 28 day) was 196 mg/dL and the IP ([…], time 28 day) was 6 mg/dL. For the same compound, the K ([…], time 28 day) was 4.1 meq/L, the LDH ([…], time 28 day) was 141.6 IU/L and the Na ([…], time 28 day) was 141.8 meq/L. The PL ([…], time 28 day) was 142.4 mg/dL, the RALB ([…], time 28 day) was 3.2 g/dL and the TBIL ([…], time 28 day) was 0.008 mg/dL. For the same compound, the TC ([…], time 28 day) was 68.6 mg/dL, the TG ([…], time 28 day) was 152.4 mg/dL and the TP ([…], time 28 day) was 6 g/dL. For the same compound, the gamma-GTP ([…], time 28 day) was 2.6 IU/L.
